From publication PMC12655682, “Screening-Identified Oxazole-4-Carboxamide KB-2777 Exhibits In Vitro Anti-Coronavirus Activity” (Pharmaceutics, 2025)
Values joined by “and” are separate entries in the source; they are usually repeats but may differ in a detail not shown here. Identical values can stand only once. “Also recorded” adds a separate entry of the source.

Assays:
HCoV-NL63 [1] = assay: Time-of-addition, spike (S) protein immunofluorescence assay, HCoV-NL63/LLC-MK2; assay type: cell-based, Human coronavirus NL63
Procedure: At 48 h post-infection, cells were fixed in 4% paraformaldehyde for 15 min, permeabilized with 0.1% Triton X-100, and blocked with 5% BSA. Samples were incubated with a virus-specific rabbit anti-S protein primary antibody, followed by a goat anti-rabbit IgG H&L (FITC) secondary antibody (Supplementary Table S1) and Hoechst nuclear counterstain. Images were acquired on an epifluorescence microscope. Using Fiji, binary thresholding and particle analysis (or Cell Counter) were applied to count the total number of cells and the number of S-positive cells per field, and the infection rate per well was calculated as (S-positive cells/total cells × 100%). At least eight randomly selected fields per well were analyzed.
TOA experiments were performed in HCoV-NL63–infected LLC-MK2 cells using four regimens: • Full: compound present from −24 h to 48 h relative to infection. • Pre-treatment: −24 h to −1 h, wash at −1 h, then infection in drug-free medium. • Co-treatment: −1 h to 0 h during adsorption only, wash at 0 h. • Post-treatment: 0 h to 48 h after adsorption.
Unless otherwise specified, infections were carried out at 100 TCID50 per well with 1 h adsorption at 37 °C, and compounds were used at 20 µM. Primary readout was S protein IFA at 48 h; EZ-Cytox and TCID50 at 48 h for the same regimens are provided in Supplementary Data (Figures S14 and S15).

HCoV-NL63 [2] = assay: Primary antiviral screening (virus inhibition) in HCoV-NL63-infected LLC-MK2 cells; assay type: cell-based, Human coronavirus NL63
Procedure: For antiviral activity, cells in 96-well plates were infected and treated with test compounds as indicated and incubated for 48–72 h. Cell viability was quantified by WST (EZ-Cytox) at 450 nm on the same reader. Cytoprotective effect was calculated by normalizing to infected DMSO controls and converting to percent protection: % Protection = ((V_drug + virus − V_virus-only)/(V_mock − V_virus-only)) × 100.
We screened 11 oxazole-4-carboxamide derivatives (Figure 1) against HCoV-NL63 in LLC-MK2 cells and quantified antiviral activity and cytotoxicity (Figure 2). Several derivatives inhibited NL63 with distinct selectivity profiles. […] Visible crystals or precipitates formed at ≥50 µM without loss of viability or morphological change; therefore, downstream assays were performed at ≤25 µM.

COc1cccc(-c2oc(-c3ccc(C(F)(F)F)cc3)nc2C(=O)NCC2CC2)c1 [KB-2777, N-(cyclopropylmethyl)-5-(3-methoxyphenyl)-2-(4-(trifluoromethyl)phenyl)Oxazole-4-Carboxamide]
inhibition by S protein IFA, post-treatment (HCoV-NL63 [1]; HCoV-NL63/LLC-MK2, 20 µM, 0 h to 48 h, readout 48 h): retained measurable activity
inhibition by S protein IFA, co-treatment (HCoV-NL63 [1]; HCoV-NL63/LLC-MK2, 20 µM, adsorption only (−1 h to 0 h), readout 48 h, vs virus-only DMSO control): little effect
inhibition by S protein IFA, pre-treatment (HCoV-NL63 [1]; HCoV-NL63/LLC-MK2, 20 µM, pre-exposure with washout, readout 48 h): retained measurable activity
inhibition by S protein IFA, full regimen (HCoV-NL63 [1]; HCoV-NL63/LLC-MK2, 20 µM, −24 h to 48 h, readout 48 h): greatest inhibition
time-of-addition effect-size order of regimens (HCoV-NL63 [1]; full, pre, co, post regimens, across readouts): full > pre ≈ post > co; also recorded: full » pre ≈ post » co
SI (=CC50/EC50) (HCoV-NL63 [2]; HCoV-NL63/LLC-MK2): > 8 and >8.28
EC50 (HCoV-NL63 [2]; Human coronavirus NL63, LLC-MK2, HCoV-NL63/LLC-MK2, primary screen, read-out: EC50): 6.04 µM
